Test results from patent US8604046B2, “Substituted piperidine spiro pyrrolidinone and piperidinone, preparation and therapeutic use thereof” (Sanofi, priority 2008, dated 2013).
pKi: −log10 of the molar value.

Columns and labels:
rhesus H3 receptor [1] = molecular target: T1, rhesus H3 receptor (Macaca mulatta, UniProt Q865E1); assay: Rhesus H3 [3H]-methylhistamine radioligand binding assay; set-up: species or system rhesus monkey (Macacca Mulatta); details: [3H]-Methylhistamine 2 nM, rhesus H3 membranes, WGA SPA beads, Cheng-Prusoff
T1 sequence (Q865E1 1-445): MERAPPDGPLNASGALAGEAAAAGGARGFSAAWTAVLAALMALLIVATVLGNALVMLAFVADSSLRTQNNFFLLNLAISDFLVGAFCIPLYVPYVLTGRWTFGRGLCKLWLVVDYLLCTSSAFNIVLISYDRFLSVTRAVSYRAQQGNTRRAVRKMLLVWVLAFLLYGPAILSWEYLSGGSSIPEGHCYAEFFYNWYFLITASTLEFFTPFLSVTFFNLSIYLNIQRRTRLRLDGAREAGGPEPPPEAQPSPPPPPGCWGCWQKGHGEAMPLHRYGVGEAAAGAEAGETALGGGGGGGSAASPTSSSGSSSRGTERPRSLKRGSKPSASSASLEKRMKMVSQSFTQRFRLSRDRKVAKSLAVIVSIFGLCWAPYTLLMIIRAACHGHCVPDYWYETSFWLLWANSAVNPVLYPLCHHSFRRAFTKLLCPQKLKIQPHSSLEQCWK
Procedure: (§1) Rhesus H3 membranes were prepared from the Flp-In T-REx 293 Cell Line (Invitrogen) stably transfected with pcDNA5/FRT/TO (Invitrogen) containing the rhesus monkey (Macacca Mulatta) 445 amino acid H3 receptor. (Genbank #AY231164). Stably transfected cultures were amplified in tissue culture flasks by standard tissue culture methods and induced to express rhesus H3 by exposure to 500 ng/ml tetracycline (Cellgro) for 24 hours. After induction, cells were dissociated from flasks utilizing Cell Stripper (Cellgro). Cells were centrifuged (1K×g, 5 min) and pellet frozen in an ethanol-dry ice bath to disrupt cell membranes. Frozen cell pellet was re-suspended in 5 mM HEPES (pH 7.4, Invitrogen) at 10 ml/1000 cm2 of harvested cells. The cell suspension was drawn through an 18 gauge needle (2-3×) followed by a 23 gauge needle (2-3×) to further disrupt cell membranes. The cell suspension was centrifuged (40K×g, 30 min). Cell membrane pellet was re-suspended in 5 mM HEPES (pH 7.4, Invitrogen) at a final protein concentration of 10 mg/ml. Rhesus H3 membranes were stored under liquid nitrogen prior to use in [3H]-Methylhistamine and GTP S radioligand binding assays.
Rhesus H3 radioligand binding assay was performed using rhesus H3 receptor membranes (prepared as described above), [3H]-Methylhistamine (Perkin Elmer) and WGA SPA beads (wheat germ agglutinin scintillation proximity assay) beads (Amersham). The assay was performed in 96-well Opti-Plates (Packard). Each reaction contained 50 μl rhesus H3 membranes (20-30 μg total protein), 50 μl WGA SPA beads (0.1 μg) and 50 μl of 83 Ci/mmol [^3H]-Methylhistamine (final concentration 2 nM) and 50 μl of tested compound. The compounds of this invention and/or vehicle were diluted with binding buffer from 10 mM DMSO stocks. Assay plates were sealed with TopSeal (Perkin Elmer) and mixed on shaker (25° C., 1 hour). Assay plates were read on TopCount scintillation counter (Packard). Results were analyzed by Hill transformation and Ki values were determined by Cheng-Prusoff equation.

rhesus H3 receptor [2] = molecular target: T1, rhesus H3 receptor; assay: GTPγS radioligand binding assay, inhibition of rhesus H3 constitutive functional activity (inverse agonism); assay type: biochemical, rhesus monkey (Macacca Mulatta); set-up: concentration or dose not given beside the values; details: rhesus H3 cell membranes, relative to basal levels
Procedure: as §1

Row | SMILES | pKi (rhesus H3 receptor [1]) | Inverse Agonism: % inhibition of Basal GTPγS binding in Rhesus H3 (rhesus H3 receptor [2]) [%]
1 | C[C@H]1CCCN1C1CCN(c2ccc(N3CCC4(CCN(C(=O)c5ccc(F)cc5)CC4)C3=O)cc2)CC1 [Example 51, 8-(4-Fluoro-benzoyl)-2-{4-[4-(2S-2-methyl-pyrrolidin-1-yl)-piperidin-1-yl]-phenyl}-2,8-diaza-spiro[4.5]decan-1-one] | 10.10 | −17
2 | C[C@H]1CCCN1C1CCN(c2ccc(N3CCC4(CCN(C(=O)C5CCCCC5)CC4)C3=O)c(F)c2)CC1 [Example 52, 8-Cyclohexanecarbonyl-2-{2-fluoro-4-[4-(2S-2-methyl-pyrrolidin-1-yl)-piperidin-1-yl]-phenyl}-2,8-diaza-spiro[4.5]decan-1-one] | 9.70 | −24
3 | C[C@H]1CCCCN1[C@H]1CCN(c2ccc(N3CCC4(CCN(S(=O)(=O)c5ccc(F)cc5)CC4)C3=O)cc2)C1 [Example 53, 8-(4-Fluoro-benzenesulfonyl)-2-{4-[3-((2S,3′S)-2-methyl-piperidin-1-yl)-pyrrolidin-1-yl]-phenyl}-2,8-diaza-spiro[4.5]decan-1-one] | 8.72 | −13
4 | C[C@H]1CCCCN1[C@H]1CCN(c2ccc(N3CCC4(CCN(C(=O)C5CCOCC5)CC4)C3=O)cc2)C1 [Example 54, 2-{4-[3-((2S,3′S)-2-Methyl-piperidin-1-yl)-pyrrolidin-1-yl]-phenyl}-8-(tetrahydro-pyran-4-carbonyl)-2,8-diaza-spiro[4.5]decan-1-one] | 8.48 | −24
5 | C[C@H]1CCCCN1[C@H]1CCN(c2ccc(N3CCC4(CCN(C(=O)C5CCCC5)CC4)C3=O)c(C(F)(F)F)c2)C1 [Example 55, 8-Cyclopentanecarbonyl-2-{4-[3-((2S,3′S)-2-methyl-piperidin-1-yl)-pyrrolidin-1-yl]-2-trifluoromethyl-phenyl}-2,8-diaza-spiro[4.5]decan-1-one] | 8.68 | −27
6 | C[C@H]1CCCN1C1CCN(c2ccc(N3CCC4(CCN(CC5CC5)CC4)C3=O)c(F)c2)CC1 [Example 56, 8-Cyclopropylmethyl-2-{2-fluoro-4-[4-(2S-2-methyl-pyrrolidin-1-yl)-piperidin-1-yl]-phenyl}-2,8-diaza-spiro[4.5]decan-1-one] | 10.40 | −23
7 | C[C@H]1CCCN1C1CCN(c2ccc(N3CCC4(CCN(CC5CCCC5)CC4)C3=O)c(F)c2)CC1 [Example 57, 8-Cyclopentyl methyl-2-{2-fluoro-4-[4-(2S-2-methyl-pyrrolidin-1-yl)-piperidin-1-yl]-phenyl}-2,8-diaza-spiro[4.5]decan-1-one] | 10.00 | −21
8 | C[C@H]1CCCCN1[C@H]1CCN(c2ccc(N3CCC4(CCN(CC5CCCCC5)CC4)C3=O)c(C(F)(F)F)c2)C1 [Example 58, 8-Cyclohexyl methyl-2-{4-[3-((2S,3′S)-2-methyl-piperidin-1-yl)-pyrrolidin-1-yl]-2-trifluoromethyl-phenyl}-2,8-diaza-spiro[4.5]decan-1-one] | 9.82 | −19
9 | C[C@H]1CCCCN1[C@H]1CCN(c2ccc(N3CCC4(CCN(CC5CCOCC5)CC4)C3=O)c(F)c2)C1 [Example 59, 2-{2-Fluoro-4-[3-((2S,3′S)-2-methyl-piperidin-1-yl)-pyrrolidin-1-yl]-phenyl}-8-(tetrahydro-pyran-4-ylmethyl)-2,8-diaza-spiro[4.5]decan-1-one] | 8.34 | −19
10 | C[C@H]1CCCN1[C@H]1CCN(c2ccc(N3CCC4(CCN(C(=O)Cc5ccccc5)CC4)C3=O)c(C(F)(F)F)c2)C1 [Example 60, 2-[4-((2S,3′S)-2-Methyl-[1,3′]bipyrrolidinyl-1′-yl)-2-trifluoromethyl-phenyl]-8-phenylacetyl-2,8-diaza-spiro[4.5]decan-1-one] | 6.84 | −19
11 | COCC(=O)N1CCC2(CC1)CCN(c1ccc(N3CC[C@H](N4CCC[C@@H]4C)C3)cc1C(F)(F)F)C2=O [Example 61, 8-(2-Methoxy-acetyl)-2-[4-((2S,3′S)-2-methyl-[1,3′]bipyrrolidinyl-1′-yl)-2-trifluoromethyl-phenyl]-2,8-diaza-spiro[4.5]decan-1-one] | 6.71 | −7
12 | C[C@H]1CCCN1[C@H]1CCN(c2ccc(N3CCC4(CCN(C(=O)c5ccc6ccccc6c5)CC4)C3=O)c(C(F)(F)F)c2)C1 [Example 62, 2-[4-((2S,3′S)-2-Methyl-[1,3′]bipyrrolidinyl-1′-yl)-2-trifluoromethyl-phenyl]-8-(naphthalene-2-carbonyl)-2,8-diaza-spiro[4.5]decan-1-one] | 8.09 | −19
13 | C[C@H]1CCCN1[C@H]1CCN(c2ccc(N3CCC4(CCN(C(=O)c5ccccc5)CC4)C3=O)c(C(F)(F)F)c2)C1 [Example 63, 8-Benzoyl-2-[4-((2S,3′S)-2-methyl-[1,3′]bipyrrolidinyl-1′-yl)-2-trifluoromethyl-phenyl]-2,8-diaza-spiro[4.5]decan-1-one] | 7.19 | −18
14 | C[C@H]1CCCN1[C@H]1CCN(c2ccc(N3CCC4(CCN(C(=O)c5ccoc5)CC4)C3=O)c(C(F)(F)F)c2)C1 [Example 64, 8-(Furan-3-carbonyl)-2-[4-((2S,3′S)-2-methyl-[1,3′]bipyrrolidinyl-1′-yl)-2-trifluoromethyl-phenyl]-2,8-diaza-spiro[4.5]decan-1-one] | 8.02 | −19
15 | COc1ccc(S(=O)(=O)N2CCC3(CCN(c4ccc(N5CC[C@H](N6CCC[C@@H]6C)C5)cc4C(F)(F)F)C3=O)CC2)cc1 [Example 65, 8-(4-Methoxy-benzenesulfonyl)-2-[4-((2S,3′S)-2-methyl-[1,3′]bipyrrolidinyl-1′-yl)-2-trifluoromethyl-phenyl]-2,8-diaza-spiro[4.5]decan-1-one] | 7.97 | −18
16 | C[C@H]1CCCN1[C@H]1CCN(c2ccc(N3CCC4(CCN(Cc5ccco5)CC4)C3=O)c(C(F)(F)F)c2)C1 [Example 66, 8-Furan-2-ylmethyl-2-[4-((2S,3′S)-2-methyl-[1,3′]bipyrrolidinyl-1′-yl)-2-trifluoromethyl-phenyl]-2,8-diaza-spiro[4.5]decan-1-one] | 8.26 | −19
17 | C[C@H]1CCCN1[C@H]1CCN(c2ccc(N3CCC4(CCN(CC5CC5)CC4)C3=O)c(C(F)(F)F)c2)C1 [Example 67, 8-Cyclopropylmethyl-2-[4-((2S,3′S)-2-methyl-[1,3′]bipyrrolidinyl-1′-yl)-2-trifluoromethyl-phenyl]-2,8-diaza-spiro[4.5]decan-1-one] | 8.85 | −12
18 | C[C@H]1CCCN1[C@H]1CCN(c2ccc(N3CCC4(CCN(CC5CCOCC5)CC4)C3=O)c(C(F)(F)F)c2)C1 [Example 68, 2-[4-((2S,3′S)-2-Methyl-[1,3′]bipyrrolidinyl-1′-yl)-2-trifluoromethyl-phenyl]-8-(tetrahydro-pyran-4-ylmethyl)-2,8-diaza-spiro[4.5]decan-1-one] | 8.38 | −19
19 | C[C@H]1CCCN1[C@H]1CCN(c2ccc(N3CCC4(CCNCC4)C3=O)c(C(F)(F)F)c2)C1.Cl [Example 69, 2-[4-((2S,3′S)-2-Methyl-[1,3′]bipyrrolidinyl-1′-yl)-2-trifluoromethyl-phenyl]-2,8-diaza-spiro[4.5]decan-1-one Hydrochloride] | 10.05 | −28
